“Also recorded” adds a separate entry of the source.
How the values were obtained:
[1] = system: L2, SW982, HCT116, 231 cells; test: Cytotoxicity assay (MTT) on four cell lines; assay type: cell-based, rat, human; conditions: 48 h, 10- to 10000-fold dilutions of 1 mg/g
Procedure: Four different cell lines were used for the evaluation of the tested formulations and unformulated bufotenin. • L2:Rat lung cells (Normal) https://www.atcc.org/products/ccl-149 • SW982: The human synovial sarcoma cells https://www.atcc.org/products/htb-93 • HCT116: The human colon cancer cells https://www.atcc.org/products/ccl-247 • 231: The human breast cancer cells https://www.atcc.org/products/crm-htb-26
Cytotoxicity assay: The effect of the NEs on cell viability was measured by MTT assay following the method by Mosmann and colleagues. Briefly, the cells were seeded in a 96 well micro titer plate (100 μL per well) with replications. After 24 h, cells were treated with 50 μL of the analyte at four different dilutions (10,100,1000, and 10000-fold), added directly to wells with culture media. The starting concentration for Kolliphor-Bf-SNEDDS, Kolliphor-Bfa-t-SNEDDSand unformulated bufoteninin DMSO were 1 mg·g^−1. After incubation for 48 h, the media was discarded. 100 μL of 0.5 mg·mL^−1 MTT stock solution was added to each well and incubated for 4 h at 37° C. The obtained formazan crystals were solubilized with DMSO, and the absorbance was measured at 570 nm using a microplate reader (SpectraMax M5e, Molecular Devices, USA). Cell viability (%) was calculated as a ratio of absorbance (A570) in treated cells to absorbance in control cells (intact cells without treatment) (A570).

[2] = system: human glioma U251 GBM cells; test: Cellular uptake, flow cytometry and fluorescence microscopy; assay type: cell-based; conditions: flow cytometry and fluorescence imaging
Procedure: Cellular uptake studies: The human glioma U251 GBM cells were cultured at 5×10^4 cells per well in 12 plates using EMEM media supplemented with 10% FBS, 0.5% PenStrep and 1% w/non-essential amino acids (NEAA); then, washed with 0.05% trypsin. The cells were cells were incubated overnight at 37° C. in a humidified 5% CO2 atmosphere. The cells were treated with NEs loaded with bufotenine and Nile Red dye diluted to 0.1 mg/ml in PBS. Untreated cells were used as a negative control a long with a solution of unformulated API and Nile Red. This was done to serve as a sort of a positive control against the negative control of the untreated cells. After 24 h exposure, cells were washed twice with PBS and then collected in PBS-EDTA media (2 mM). The flow cytometry was performed using a BD C6 Flow Cytometry apparatus at a wavelength of 488 nm laser. For each experiment 10,000 cells were gated per sample and each sample was performed in triplicate. These cells prepared as such were used for fluorescence analysis. Fluorescence images were taken using a Leica CRT 6500 at the desired magnification using Texas Red Set (Leica TX2 ET Set) filter and exciting the samples using a continuous wave Ar+ laser at 488 nm.

CN(C)CCc1c[nH]c2ccc(O)cc12 [unformulated bufotenin, 5-Hydroxy-N,N-dimethyltryptamine]
cytotoxicity / cell viability [1]: no effect on their viability
cellular uptake (in words) [2]: no unformulated bufotenin penetrated the glioma cells; also recorded: negligible

— patent US20240226005A1, “NANO- AND MICRO-FORMULATIONS” (Huxley Health Inc., priority 2023, published 2024)
